Experimental findings from patent US10202420B2, “Methods and compositions for treatment of cartilage and disc tissue pathologies” (THE ROYAL INSTITUTION FOR ADVANCEMENT OF LEARNING/MCGILL …, priority 2013, dated 2019) are described below.

What all share (assay type): cell-based
In one assay the test system is aggrecan core protein. The experiment in a line: Aggrecan core protein by Western blot, bovine disc organ culture. As to conditions: degenerated bovine discs, 2 weeks post Link N 1-8 treatment. The text has this:
(§1) The largest first 3-4 caudal discs were isolated from the tails of 24- to 30-month-old steers, as described previously (21,22). Briefly, the tails were dissected free of skin, muscles and ligaments, and pedicles for each segment were removed. The bone and the adjacent calcified part of the cartilaginous endplate were removed, so that the surface of the disc was soft and flexible without detectable calcified tissue. After the discs were rinsed in PBS supplemented with 1,000 U/mL penicillin, 1,000 μg/mL streptomycin and 0.25 μg/mL fungizone (GIBCO, Burlington, Canada), they were preconditioned for 3 days in sterile 80 mL specimen containers (STARPLEX Scientific, Etobicoke, Canada) containing 50 mL culture medium. (DMEM with 2 mM Glutamax and 25 mM Hepes, supplemented with 5% FBS, 100 U/mL penicillin, 100 μg/mL streptomycin, 50 μg/mL L-ascorbate). Degeneration was induced by a single injection of 100 μg trypsin (Sigma-Aldrich) dissolved in 75 μL PBS into the center of the disc using a 28 G½ needle (21) The needle was placed on top of the disc to measure the distance needed to reach the center and was then inserted to the same depth. […] The number of MSCs used was based on a study by Liebscher et al (23), which measured the cell density of healthy human discs. […]
(§2) The remaining nucleus pulposus (NP) tissue was collected and the wet weight was recorded (21). […]
(Immunoblotting shows a protein as a band on a membrane.)

Assay [1] concerns human inner annulus fibrosus (iAF) cells. The experiment in a line: Proteoglycan synthesis by 35SO4 incorporation, cells in alginate beads. As to conditions: human AF (iAF) cells, 48 h. As to the method: (§3) Human thoracolumbar spines were retrieved through the Transplant Quebec organ donation program. Discs were obtained from 7 donors, 1 male and 6 female, with a mean age of 29.6 years and an age range of 16 to 47 years (Table 1). Donors having had recent chemotherapy, radiation therapies to the spine, or significant long-standing paralysis were excluded from the study. Spine retrieval was performed within 8 h of death. Discs with calcification and loss of disc height were not included in the study. All procedures were approved by the institutional review board of the Montreal General Hospital.
(§4) Human and bovine IVDs were separated from the adjoining vertebral body and divided into NP and AF for bovine IVDs and NP and inner annulus fibrosus (iAF) for human IVDs. Tissue from the human outer annulus fibrosus (oAF) was not used for cell isolation in this study. Cells were enzymatically isolated from each region as previously described (63). Briefly, NP and AF tissues were dissected into approximately 2-mm thick pieces, washed twice in PBS containing 50 μg/mL gentamicin, […] and 0.25 μg/mL fungizone, then digested with 0.2% pronase for 1 h, followed by collagenase type IA at 0.01% for NP and 0.04% for AF tissue for 4 h in serum free DMEM.
(§5) To compare the metabolic response to the various Link N peptides, freshly isolated human and bovine cells from NP and AF regions were embedded in 1.2% alginate beads, as previously described (65). Cells in alginate beads were cultured at 37° C., 5% CO2 in DMEM, containing 4.5 g/L glucose and supplemented with 10% FCS, 25 mmol/L HEPES, 50 μg/mL gentamicin sulphate, 0.25 μg/mL fungizone, 50 μg/mL L-ascorbate, and 2 mmol/L GlutaMAX. The beads were stabilized for 7 days and cell viability was assessed by Live/Dead® assay prior to further treatment. 5 beads per well were then cultured in 48 well plates in the presence of equimolar concentrations of either Link N (1 μg/mL), R-Link N (1 μg/mL), S-Link N (1 μg/mL), Link N 1-8 (0.5 μg/mL) or Link N 9-16 (0.5 μg/mL) in 0.5 mL DMEM. 25 μCi/mL ^35SO4 was added to the medium to allow assessment of proteoglycan synthesis (66). In addition, beads were exposed for 48 h to IL-1β (10 ng/mL) alone, or to a combination of peptides and IL-1β (51). At the end of the culture period, medium was collected and dialyzed exhaustively against miliQ water at […] (Spectra/Por® 3), followed by cold chase with 1M MgSO4 for 2 h to remove any remaining unincorporated ^35SO4. The ^35SO4 incorporation was measured using a beta scintillation counter (Beckman Coulter LS6500, Beckman Coulter, Mississauga, Canada).

Assay [2] has as its system human nucleus pulposus (NP) cells. The assay is described as above. To be noted: 48 h. Here is the method: as §3, §4, §5
Another assay deals with type II collagen. The experiment in a line: Type II collagen by Western blot, bovine disc organ culture. As to conditions: degenerated bovine discs, 2 weeks post Link N 1-8 treatment.
Description: as §1, §2

Assay [3] relates to bovine discs with trypsin-induced degeneration. The experiment in a line: Proteoglycan (GAG, DMMB) concentration in bovine disc organ culture with trypsin-induced degeneration. To be noted: degenerated bovine discs, 2 weeks post Link N 1-8 treatment.
Description: as §1, with “L-ascorbate).” for “L-ascorbate). Degeneration was induced by a single injection of 100 μg trypsin (Sigma-Aldrich) dissolved in 75 μL PBS into the center of the disc using a 28 G½ needle (21) The needle was placed on top of the disc to measure the distance needed to reach the center and was then inserted to the same depth.”
as §2
Sulfated glycosaminoglycans (GAGs) were quantified in tissue extracts by a modified dimethyl methylene blue (DMMB) dye-binding assay (25,26). […]

The test system of assay [4] is bovine nucleus pulposus (NP) cells. In words: Proteoglycan synthesis by 35SO4 incorporation, cells in alginate beads. To be noted: 48 h. As to the method: as §4, §5
The test system of assay [5] is bovine annulus fibrosus (AF) cells. The assay is described as above. To be noted: 48 h. Here is the method:
as §4, §5

The mark [6] stands for this setting: 16-mer peptides 1 μg/mL, 8-mer peptides 0.5 μg/mL, vs medium alone.
Where [7] appears, read: IL-1β 10 ng/mL, vs IL-1-containing medium.

Regarding “DHLSDNYT [Link N 1-8, Link-N first 8 peptide residues]”, the aggrecan expression result with aggrecan core protein was “statistically significant increase”. Further, the “proteoglycan synthesis (35SO4 incorporation)” value was “significant increase” in assay [1] (setting [6]), “significant increase” in assay [2] (setting [6]), “statistically significant increase” in assay [4] (setting [6]) and “statistically significant increase” in assay [5] (setting [6]). For the same sequence, the “proteoglycan synthesis (35SO4 incorporation) in the presence of IL-1β” value is “significantly increased response” in assay [1] (setting [7]), “significantly increased response” in assay [2] (setting [7]), “significantly induced proteoglycan production to the same extent as native Link N” in assay [4] (setting [7]) and “significantly induced proteoglycan production to the same extent as native Link N” in assay [5] (setting [7]). In the assay on type II collagen, the “type II collagen expression” value is “statistically significant increase”. In addition, the “proteoglycan synthesis (proteoglycan concentration in the discs)” value in assay [3] is listed as “statistically significant increase”.
